Laboratory results from patent publication US20230109134A1, “PYRIDAZINONE OR PYRIDAZINE COMPOUND AND DERIVATIVE AND PHARMACEUTICAL COMPOSITION THEREOF” (Suzhou Zelgen Biopharmaceuticals Co., Ltd., priority 2019, published 2023).

Experiments:
[1] = test system: Diet-Induced Obesity (DIO) C57Bl/6J mouse; test: Diet-induced obesity (DIO) C57Bl/6J mouse model; type: in vivo; conditions: DIO C57Bl/6J mice, 1, 3 or 10 mg/kg intragastric, 23 consecutive days
Procedure: 6-week-old C57Bl/6J mice were given a high-fat diet for 34 weeks. Mice were intragastrically administered vehicle (2% Klucel LF, 0.1% Tween 80 in water); 1, 3 or 10 mg/kg of compound 2A, compound 2B prepared in Example 2 or compound MGL-3196 prepared in Example 1 starting from day 0 (1st day of 35 weeks) respectively, 9 mice in each group, for 23 consecutive days. In a parallel study, mice were intragastrically administered vehicle (Dulbecco's phosphate buffered saline, pH adjusted to 9.0 with 1N NaOH) or 10, 30 or 100 μg/kg triiodothyronine (T3) starting from day 0 (day 1 of week 35) respectively, 9 mice in each group, for 23 consecutive days. Body weight and food intake were monitored during the study. BMD and body composition analyses were performed on day 22. At necropsy on day 23, organ weighing was performed and cholesterol and other blood biochemical parameters of blood samples were evaluated.

[2] = Pharmacokinetic testing evaluation, Test Example 4 (rat plasma); type: in vivo, SD rats; conditions: for plasma exposure AUC relative to compound MGL-3196: rats, 10 mg/kg intragastric, Table 5
Procedure: (§1) Male SD rats, weighing about 220 g, were divided into 3 groups after fasting overnight, with 4 rats in each group. The first group was intragastrically administered 10 mg/kg solution of compound MGL-3196 prepared in Example 1, the second group was intragastrically administered 10 mg/kg solution of compound 2A prepared in Example 2 (The dosage is calculated by the relative content of compound MGL-3196 prepared in Example 1), and the third group was intragastrically administered 10 mg/kg solution of compound 2B prepared in Example 2 (The dosage is calculated by the relative content of compound MGL-3196 prepared in Example 1), wherein the vehicle of the solution of compound MGL-3196, compound 2A, and compound 2B is DMSO/PEG400. Blood was collected from each group at 0.5, 1.0, 2.0, 4.0, 6.0, 8.0, 12 and 24 hours after administration, and the concentration of active ingredient MGL-3196 in plasma was determined by LC/MS/MS.

[3] = Drug concentrations in liver tissue, Test Example 5; type: in vivo, ICR mice; conditions: mouse liver at 1 hr and 6 hr, 10 mg/kg intragastric
Procedure: ICR mice, weighing 20-30 g, were divided into 4 groups after fasting overnight, with 8 mice in each group. The first group was intragastrically administered 10 mg/kg solution of compound MGL-3196 prepared in Example 1, the second group was intragastrically administered 10 mg/kg solution of compound 2A prepared in Example 2 (The dosage is calculated by the relative content of compound MGL-3196 prepared in Example 1), the third group was intragastrically administered 10 mg/kg solution of compound 2B prepared in Example 2 (The dosage is calculated by the relative content of compound MGL-3196 prepared in Example 1) and the fourth group was intragastrically administered 10 mg/kg solution of compound 6B prepared in Example 6 (The dosage is calculated by the relative content of compound MGL-3196 prepared in Example 1), wherein the vehicle of the solution of compound MGL-3196, compound 2A, compound 2B and compound 6B is DMSO/PEG400. The livers of mice in each group were collected at 1 hr and 6 hr after administration, respectively, and the concentration of the active ingredient MGL-3196 in the liver was determined by LC/MS/MS.

[4] = Pharmacokinetic testing evaluation, Test Example 3 (rat plasma); type: in vivo, SD rats
Procedure: as §1, with “1, and” for “1,”, “6B” for “2A”, “6” for “2 (The dosage is calculated by the relative content of compound MGL-3196 prepared in Example 1), and the third group was intragastrically administered 10 mg/kg solution of compound 2B prepared in Example 2”, “MGL-3196” for “MGL-3196, compound 2A,”, “6B prepared in Example 6” for “2B”

[5] = Pharmacokinetic testing evaluation, Test Example 2 (rat plasma); type: in vivo; conditions: male SD rats, intragastric 10 mg/kg (calculated based on MGL-3196), DMSO/PEG400; MGL-3196 measured in plasma; n = 4, mean
Procedure: Male SD rats, weighing about 220 g, were divided into 2 groups after fasting overnight, with 4 rats in each group. The first group was intragastrically administered 10 mg/kg solution of compound MGL-3196 prepared in Example 1, and the second group was intragastrically administered 10 mg/kg solution of compound 6A prepared in Example 6 (The dosage is calculated by the relative content of compound MGL-3196 prepared in Example 1), wherein the vehicle of the solution of MGL-3196 compound and compound 6A prepared in Example 6 is DMSO/PEG400. Blood was collected from each group at 0.5, 1.0, 2.0, 4.0, 6.0, 8.0, 12 and 24 hours after administration, and the concentration of active ingredient MGL-3196 in plasma was determined by LC/MS/MS.

[6] = Pharmacokinetic testing evaluation, Test Example 1 (rat plasma); type: in vivo; conditions: male SD rats, intragastric 10 mg/kg (calculated based on MGL-3196), DMSO/PEG400; plasma concentration of MGL-3196; n = 4, mean
Procedure: Male SD rats, weighing about 220 g, were divided into 2 groups after fasting overnight, with 4 rats in each group. The first group was intragastrically administered 10 mg/kg solution of compound MGL-3196 prepared in Example 1, and the second group was intragastrically administered 10 mg/kg solution of compound of Example 5 of WO2009037172A1 (The dosage is calculated by the relative content of compound MGL-3196 prepared in Example 1), wherein the vehicle of the solution of compound MGL-3196 and compound of Example 5 of WO2009037172A1 is DMSO/PEG400. Blood was collected from each group at 0.5, 1.0, 2.0, 4.0, 6.0, 8.0, 12 and 24 hours after administration, and the concentration of active ingredient MGL-3196 in plasma was determined by LC/MS/MS.

[7] = male SD rats, intragastric 10 mg/kg (calculated based on MGL-3196), DMSO/PEG400, MGL-3196 measured in plasma, n = 4, mean

Row | SMILES | efficacy in lowering cholesterol and liver fat [1] | plasma exposure AUC relative to compound MGL-3196 [2] [times] | drug concentration in mouse liver compared to MGL-3196 [3] | plasma exposure AUC relative to compound MGL-3196 ([4]; rats, 10 mg/kg intragastric, Table 4) [times] | T1/2 [5] [h] | Tmax [5] [h] | T1/2 [2, 7] [h] | Tmax [2, 7] [h] | T1/2 [4, 7] [h] | Tmax [4, 7] [h] | T1/2 [6] [h] | Tmax [6] [h]
1 | CC(C)OC(=O)OC(C)Oc1nnc(Oc2c(Cl)cc(-n3nc(C#N)c(=O)[nH]c3=O)cc2Cl)cc1C(C)C (centres unmarked) [Compound 2B, 1-((6-(2,6-dichloro-4-(6-cyano-3,5-dioxo-4,5-dihydro-1,2,4-triazin-2(3H)-yl)phenoxy)-4-isopropylpyridazin-3-yl)oxy)ethyl Isopropyl Carbonate] | excellent efficacy in lowering cholesterol and liver fat | 1.87 | higher drug concentrations | – | – | – | – | – | – | – | – | –
2 | CC(C)OC(=O)OCOc1nnc(Oc2c(Cl)cc(-n3nc(C#N)c(=O)[nH]c3=O)cc2Cl)cc1C(C)C [Compound 6B, ((6-(2,6-dichloro-4-(6-cyano-3,5-dioxo-4,5-dihydro-1,2,4-triazin-2(3H)-yl)phenoxy)-4-isopropylpyridazin-3-yl)oxy)methyl Isopropyl Carbonate] | excellent efficacy in lowering cholesterol and liver fat | – | higher drug concentrations | 2.0 | – | – | – | – | – | – | – | –
3 | CC(C)OC(=O)OC(C)n1nc(Oc2c(Cl)cc(-n3nc(C#N)c(=O)[nH]c3=O)cc2Cl)cc(C(C)C)c1=O (centres unmarked) [Compound 2A, 1-(3-(2,6-dichloro-4-(6-cyano-3,5-dioxo-4,5-dihydro-1,2,4-triazin-2(3H)-yl)phenoxy)-5-isopropyl-6-oxopyridazin-1(6H)-yl)ethyl Isopropyl Carbonate] | excellent efficacy in lowering cholesterol and liver fat | 2.4 | higher drug concentrations | – | – | – | – | – | – | – | – | –
4 | CC(C)c1cc(Oc2c(Cl)cc(-n3nc(C#N)c(=O)[nH]c3=O)cc2Cl)n[nH]c1=O [MGL-3196, 2-(3,5-dichloro-4-((5-isopropyl-6-oxo-1,6-dihydropyridazin-3-yl)oxy)phenyl)-3,5-dioxo-2,3,4,5-tetrahydro-1,2,4-triazin-6-carbonitrile] | – | – | – | – | 3.54 | 5.00 | 3.73 | 4.5 | 3.55 | 6.0 | 3.35 | 2.75
